# Measured values: patent publication US20080293676A1, “Insecticidal Agents Based on Selected Insecticides and Safeners” (priority 2004, published 2008)
# Columns and labels:
# Type in all cases: in vivo
# [1] = test system: green peach aphid (Myzus persicae); test: Myzus persicae test, spray treatment to runoff on infested bell pepper plants; details: for Kill in % after 1^d: Table E2
# Excerpt: (§1) The expected activity for a given combination of two active ingredients can be calculated (cf. Colby, S. R.; “Calculating Synergistic and Antagonistic Responses of Herbicide Combinations”, Weeds 15, pages 20-22, 1967):
# (§2) If • x=the kill rate, expressed in % of the untreated control, when employing active ingredient A at an application rate of m ppm, • Y=the kill rate, expressed in % of the untreated control, when employing active ingredient B at an application rate of n ppm, and • E=the kill rate, expressed in % of the untreated control, when employing active ingredients A and B at application rates of m and n ppm, then
# (§3) If the actual insecticidal kill rate is higher than the calculated one, the kill of the combination is superadditive, i.e. a synergistic effect is present. In this case, the kill rate that is actually observed has to be higher than the value, calculated using the formula above, for the expected kill rate (E).
# (§4) An appropriate solution is prepared by mixing 1 part by weight of formulation with the stated amount of water and adjuvant, and diluting the concentrate with water to the desired concentration.
# Bell pepper plants (Capsicum sativum) heavily infested by the green peach aphid (Myzus persicae) are sprayed to runoff with the desired concentration of the application solution.
# (§5) After the desired time the kill in % is determined in each case. In this context, 100% means that all of the larvae have been killed; 0% means that no larvae have been killed. The kill figures determined are calculated in accordance with the Colby formula described above.
# [2] = test system: cotton aphid (Aphis gossypii); test: Aphis gossypii test, spray treatment to runoff on infested cotton plants
# Excerpt: as §1, §2, §3, §4
# Cotton plants (Gossypium herbaceum) heavily infested by the cotton aphid (Aphis gossypii) are sprayed to runoff with the desired concentration of the application solution.
# as §5
# [3] = test system: caterpillars of the army worm (Spodoptera frugiperda); test: Spodoptera frugiperda test, spray treatment to runoff on corn plants
# Excerpt: as §1, §2, §3, §4
# b) Spodoptera frugiperda Test
# Corn plants (Zea mais) are sprayed to runoff with the desired use concentration and are populated with caterpillars of the army worm (Spodoptera frugiperda) while the leaves are still wet.
# as §5
# [4] = test system: larvae of the cabbage moth (Plutella xylostella); test: Plutella xylostella test, spray treatment to runoff on cabbage plants; details: Table B
# Excerpt: as §1, §2, §3, §4
# c) Plutella xylostella Test
# Cabbage plants (Brassica pekinesis) are sprayed to runoff with the desired use concentration and are populated with larvae of the cabbage moth (Plutella xylostella) while the leaves are still wet.
# as §5
# [5] = test system: caterpillars of the cotton boll worm (Heliothis armigera); test: Heliothis armigera test, spray treatment to runoff on cotton plants; details: Table A, 4 ppm
# Excerpt: as §1, §2, §3, §4
# a) Heliothis armigera Test […]
# After the desired time the kill in % is determined in each case. […] The kill figures determined are calculated in accordance with the Colby formula described above.
compound,measurement,setting,value
CC1(C)[C@H](C(=O)O[C@H](C#N)c2cccc(Oc3ccccc3)c2)[C@@H]1C=C(Br)Br [Deltamethrin],Kill in % after 1^d,[1]; 0.8 ppm,20%
same,Kill in % after 3^d,"[2]; Table D2, 0.8 ppm",15%
"C=CCN(CC=C)C(=O)C(Cl)Cl [Dichlormid a.i., 2,2-dichloro-N,N-di-2-propenylacetamide]",Kill in % after 3^d,"[3]; Table C2, 50 ppm",0%
same,Kill in % after 3^d,"[2]; Table D1, 100 ppm",0%
"Clc1cc(Cl)nc(-c2ccccc2)n1 [Fenclorim, 4,6-dichloro-2-phenylpyrimidine]",Kill in % after 3^d,"[3]; Table C2, 100 ppm",0%
same,Kill in % after 7^d,[4]; 100 ppm,0%
same,Kill in % after 3^d,"[2]; Table D1, 100 ppm",0%
same,Kill in % after 3^d,"[2]; Table D2, 100 ppm",0%
"CC1(C)OC(c2ccco2)CN1C(=O)C(Cl)Cl (stereo not shown) [Furilazole a.i., 3-dichloroacetyl-5-(2-furanyl)-2,2-dimethyloxazolidine]",Kill in % after 1^d,[1]; 100 ppm,0%
same,Kill in % after 3^d,"[3]; Table C2, 100 ppm",0%
same,Kill in % after 3^d,"[2]; Table D1, 100 ppm",0%
same,Kill in % after 3^d,"[2]; Table D2, 100 ppm",0%
CNC(=O)Oc1cc(C)c(SC)c(C)c1 [Methiocarb],Kill in % after 3^d,"[3]; Table C2, 20 ppm",17%
same,Kill in % after 7^d,[4]; 20 ppm,0%
"CC1(C)C(C=C(Cl)Cl)C1C(=O)OC(C#N)c1ccc(F)c(Oc2ccccc2)c1 (stereo not drawn) [β-Cyfluthrin, Beta-Cyfluthrin]",Kill in % after 3^d,"[1]; Table E1, 0.8 ppm, after 3 d",10%
same,Kill in % after 3^d,"[2]; Table D1, 0.8 ppm",35%
Chlorpyrifos,Kill in % after 3^d,"[3]; Table C1, 4 ppm",50%
same,Kill in % after 7^d,[4]; 4 ppm,0%
same,Kill in % after 3^d,[5],0%
